We go through eight compounds from ChEMBL document CHEMBL1129804, “First synthesis and cytotoxic activity of novel docetaxel analogs modified at the C18-position” (1997).

One may read the GI50 as the concentration that inhibits growth by half.

Holding throughout (format): functional
One test relates to P388. As to the kind of experiment: Compound was tested for growth inhibitory activity after 72 hr of continuous exposure against mouse leukemia P388. Particulars: P388, 72 h.
In test [1] the test system is PC-6. Put plainly: Compound was tested for growth inhibitory activity after 72 hr of continuous exposure against human lung cancer cell line PC-6. Particulars: PC-6, 72 h.
Test [2] relates to PC-6. As to the kind of experiment: Compound was tested for growth inhibitory activity after 72 hr of continuous exposure against vincristine resistant cancer cell line PC-6/VCR. Particulars: Homo sapiens, PC-6, 72 h.

≈ marks a conversion by molar mass, not a printed value.

`CC(=O)OCC1=C2[C@@H](O)C(=O)[C@@]3(C)[C@H]([C@H](OC(=O)c4ccccc4)[C@](O)(C[C@@H]1OC(=O)[C@H](O)[C@@H](NC(=O)OC(C)(C)C)c1ccccc1)C2(C)C)[C@]1(OC(C)=O)CO[C@@H]1C[C@@H]3O`: the GI50 is 0.181 µg/mL (≈ 0.209 µM) with P388, 0.163 µg/mL (≈ 0.188 µM) in the test with PC-6 [1] and more than 1 µg/mL in the test on PC-6 [2].

Take `CC(=O)O[C@H]1C(=O)[C@@]2(C)[C@H]([C@H](OC(=O)c3ccccc3)[C@]3(O)C[C@H](OC(=O)[C@H](O)[C@@H](NC(=O)OC(C)(C)C)c4ccccc4)C(CN=[N+]=[N-])=C1C3(C)C)[C@]1(OC(C)=O)CO[C@@H]1C[C@@H]2O`: the GI50 came to 0.0401 µg/mL (≈ 0.045 µM) in the test with P388, 0.0524 µg/mL (≈ 0.0588 µM) in the test with PC-6 [1] and 0.39 µg/mL (≈ 0.438 µM) in the test with PC-6 [2].

As for `CC(=O)O[C@@]12CO[C@@H]1C[C@H](O)[C@@]1(C)C(=O)[C@H](O)C3=C(CC#N)[C@@H](OC(=O)[C@H](O)[C@@H](NC(=O)OC(C)(C)C)c4ccccc4)C[C@@](O)([C@@H](OC(=O)c4ccccc4)[C@H]21)C3(C)C`, the GI50 turned out to be 0.00837 µg/mL (≈ 0.01 µM) with P388, 0.00481 µg/mL (≈ 0.00578 µM) in the test with PC-6 [1] and 0.754 µg/mL (≈ 0.905 µM) in the test with PC-6 [2].

For `CC(=O)O[C@@]12CO[C@@H]1C[C@H](O)[C@@]1(C)C(=O)[C@H](O)C3=C(CN4CCOCC4)[C@@H](OC(=O)[C@H](O)[C@@H](NC(=O)OC(C)(C)C)c4ccccc4)C[C@@](O)([C@@H](OC(=O)c4ccccc4)[C@H]21)C3(C)C`, the GI50 in the test with P388, in the test with PC-6 [1] and in the test with PC-6 [2] was more than 1 µg/mL in each case.

For the compound `CCC1=C2[C@@H](OC(C)=O)C(=O)[C@@]3(C)[C@H]([C@H](OC(=O)c4ccccc4)[C@](O)(C[C@@H]1OC(=O)[C@H](O)[C@@H](NC(=O)OC(C)(C)C)c1ccccc1)C2(C)C)[C@]1(OC(C)=O)CO[C@@H]1C[C@@H]3O`, the GI50 in the test on P388 was 0.00745 µg/mL (≈ 0.00862 µM); with PC-6 [1] it was 0.0103 µg/mL (≈ 0.0119 µM); in the test with PC-6 [2], 0.167 µg/mL (≈ 0.193 µM).

Consider `CC(=O)O[C@H]1C(=O)[C@@]2(C)[C@H]([C@H](OC(=O)c3ccccc3)[C@]3(O)C[C@H](OC(=O)[C@H](O)[C@@H](NC(=O)OC(C)(C)C)c4ccccc4)C(C=O)=C1C3(C)C)[C@]1(OC(C)=O)CO[C@@H]1C[C@@H]2O`, for which the GI50 with P388 was more than 1 µg/mL; in the test with PC-6 [1] it was 0.699 µg/mL (≈ 0.809 µM); with PC-6 [2] it was more than 1 µg/mL.

As for `CC(=O)NCC1=C2[C@@H](OC(C)=O)C(=O)[C@@]3(C)[C@H]([C@H](OC(=O)c4ccccc4)[C@](O)(C[C@@H]1OC(=O)[C@H](O)[C@@H](NC(=O)OC(C)(C)C)c1ccccc1)C2(C)C)[C@]1(OC(C)=O)CO[C@@H]1C[C@@H]3O`, the GI50 in the test with P388 was 0.393 µg/mL (≈ 0.433 µM); with PC-6 [1] it was 0.131 µg/mL (≈ 0.144 µM); with PC-6 [2], more than 1 µg/mL.

With `CC(=O)O[C@@]12CO[C@@H]1C[C@H](O)[C@@]1(C)C(=O)[C@H](O)C3=C(C)[C@@H](OC(=O)[C@H](O)[C@@H](NC(=O)OC(C)(C)C)c4ccccc4)C[C@@](O)([C@@H](OC(=O)c4ccccc4)[C@H]21)C3(C)C.O.O.O` [DOCETAXEL], the results for the GI50 in the test with P388, with PC-6 [1] and in the test with PC-6 [2] were 0.00162 µg/mL, 0.00116 µg/mL and 0.173 µg/mL, respectively.
